Results taken from patent publication US7592350B2, “Polycyclic compounds as potent alpha2-adrenoceptor antagonists” (Orion Corporation, priority 2002, dated 2009).
Read-outs that look alike come from different tables or passages of the source.

Legend:
alpha2C-adrenoceptor [1] = biological target: T1, alpha2C-adrenoceptor (Homo sapiens, UniProt P18825); assay: Radioligand binding to alpha2-adrenoceptors (alpha2C)
T1 sequence (P18825 1-462): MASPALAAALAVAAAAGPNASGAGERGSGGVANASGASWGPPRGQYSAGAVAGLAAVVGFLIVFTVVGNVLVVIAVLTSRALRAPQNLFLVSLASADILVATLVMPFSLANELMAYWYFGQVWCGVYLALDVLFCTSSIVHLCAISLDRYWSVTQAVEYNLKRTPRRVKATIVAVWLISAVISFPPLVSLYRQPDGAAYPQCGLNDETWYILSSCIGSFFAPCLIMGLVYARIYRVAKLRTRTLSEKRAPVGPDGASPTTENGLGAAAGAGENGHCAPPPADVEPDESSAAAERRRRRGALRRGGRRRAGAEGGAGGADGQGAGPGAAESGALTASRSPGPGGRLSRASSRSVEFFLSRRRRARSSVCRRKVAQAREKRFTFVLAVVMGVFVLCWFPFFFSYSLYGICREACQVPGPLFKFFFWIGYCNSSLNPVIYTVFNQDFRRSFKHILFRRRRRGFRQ

mice = assay: Antagonism of alpha2-agonist (dexmedetomidine)-induced sedation; type: in vivo; conditions: dexmedetomidine 50 nmol/kg s.c., antagonist pre-treatment
Description: (veh=vehicle). (***p<0.001, compared to Dex+vehicle)
One of the prominent effects of non-selective alpha2-agonists in rodents is their ability to cause profound sedation. This effect, measured as locomotor inhibition by the alpha2-agonist dexmedetomidine was not modified in mice with genetically altered alpha2C-expression (Scheinin, M. et al., Life Sci 68(19-20) (2001) 2277-85). […] This assumption was tested in experiment, where dexmedetomidine was administered to mice pre-treated with the alpha2C-antagonists compound K or compound L, or the subtype non-selective antagonist atipamezole (Haapalinna, A. et al., Naunyn-Schmiedeberg's Arch. Pharmacol. 356 (1997) 570-582).

alpha2B-adrenoceptor [2] = biological target: T2, alpha2B-adrenoceptor (Homo sapiens, UniProt P18089); assay: Radioligand binding to alpha2-adrenoceptors (alpha2B); conditions: calculated Ki from radioligand binding assays; read-out: Binding affinity (Ki) alpha2B
T2 sequence (P18089 1-450): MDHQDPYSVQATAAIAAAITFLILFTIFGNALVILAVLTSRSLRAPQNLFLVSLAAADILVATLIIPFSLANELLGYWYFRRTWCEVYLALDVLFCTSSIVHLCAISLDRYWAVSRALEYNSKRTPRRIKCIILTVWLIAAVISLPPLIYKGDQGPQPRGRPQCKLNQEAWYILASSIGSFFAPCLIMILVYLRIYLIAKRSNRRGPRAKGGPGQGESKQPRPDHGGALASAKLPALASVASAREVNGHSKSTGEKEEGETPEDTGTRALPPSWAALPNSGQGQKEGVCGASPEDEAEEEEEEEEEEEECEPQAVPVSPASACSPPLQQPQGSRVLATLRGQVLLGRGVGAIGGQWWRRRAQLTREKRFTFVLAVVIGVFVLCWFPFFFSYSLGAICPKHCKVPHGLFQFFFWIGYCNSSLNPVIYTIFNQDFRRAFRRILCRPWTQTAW
Description: Examples of the alpha2-adrenoceptor binding affinities of the compounds including in the present invention are shown in the Table 1. Many of these compouinds are high-affinity ligands for all the alpha2-receptors, but some of them display selectivity for the alpha2C-subtype.

alpha2A-adrenoceptor [3] = biological target: T3, alpha2A-adrenoceptor (Homo sapiens, UniProt P08913); assay: Inhibition of epinephrine-stimulated 35S-GTPγS binding, CHO cell membranes (alpha2A); type: biochemical; design: expressed in transfected cells; host or cells: CHO cells (membranes); conditions: mean, read-out: Antagonist potency (KB) alpha2A
T3 sequence (P08913 1-465): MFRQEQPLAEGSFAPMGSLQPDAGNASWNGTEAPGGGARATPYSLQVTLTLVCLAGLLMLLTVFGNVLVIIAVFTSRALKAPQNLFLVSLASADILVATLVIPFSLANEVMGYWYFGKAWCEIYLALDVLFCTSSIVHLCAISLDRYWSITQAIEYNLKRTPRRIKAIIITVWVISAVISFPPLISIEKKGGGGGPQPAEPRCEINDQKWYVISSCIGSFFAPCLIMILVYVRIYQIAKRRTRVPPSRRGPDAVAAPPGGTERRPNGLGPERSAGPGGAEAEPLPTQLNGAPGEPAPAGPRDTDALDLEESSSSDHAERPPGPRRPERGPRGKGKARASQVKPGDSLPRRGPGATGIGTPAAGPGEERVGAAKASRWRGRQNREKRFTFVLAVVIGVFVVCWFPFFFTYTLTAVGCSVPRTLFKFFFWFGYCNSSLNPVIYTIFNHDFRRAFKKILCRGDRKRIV
Description: (§1) The functional activities of two compounds (K and L) displaying alpha2C-selectivity in binding experiments were determined as the abilities of the compounds to inhibit the epinephrine-stimulated binding of ^35S-GTPγS to G proteins (Jasper, J. R. et al., Biochem. Pharmacol. 55(7) (1998) 103544) in membranes of CHO cells stably transfected with the human alpha2-adrenoceptor subtypes.

alpha2B-adrenoceptor [4] = biological target: T2, alpha2B-adrenoceptor; assay: Inhibition of epinephrine-stimulated 35S-GTPγS binding, CHO cell membranes (alpha2B); type: biochemical; design: expressed in transfected cells; host or cells: CHO cells (membranes); conditions: mean, read-out: Antagonist potency (KB) alpha2B
Description: as §1

alpha2C-adrenoceptor [5] = biological target: T1, alpha2C-adrenoceptor; assay: Inhibition of epinephrine-stimulated 35S-GTPγS binding, CHO cell membranes (alpha2C); type: biochemical; design: expressed in transfected cells; host or cells: CHO cells (membranes); conditions: mean, read-out: Antagonist potency (KB) alpha2C
Description: as §1

alpha2A-adrenoceptor [6] = biological target: T3, alpha2A-adrenoceptor; assay: Radioligand binding to alpha2-adrenoceptors (alpha2A); conditions: calculated Ki from radioligand binding assays; read-out: Binding affinity (Ki) alpha2A
rats [7] = assay: Forced swimming test; type: in vivo; conditions: compared to vehicle
Description: Forced swimming test (FST, i.e. Porsolt's test) is generally used in the pharmacological screening of new-antidepressants. In this test, antidepressants increase the animals' activity compared to non-treated controls. […] Therefore, it was tested, whether a selective alfa2C-antagonist would have antidepressant-like activity (e.g. activity-increasing property) in the FST. […] Also the positive control substances desipramine and fluoxetine (clinically effective antidepressant agents) were active.

rats [8] = assay: Prepulse inhibition of the startle reflex; type: in vivo
Description: FIGS. 4a and 4b show the effect of compounds K and L on the startle reflex and its prepulse inhibition in rats. (Veh=vehicle). Asterisks as in FIG. 1; comparisons were performed between PCP (phencyclidine)+vehicle and PCP+compounds K and L.
FIGS. 5a and 5b show the effect of the non-selective antagonist atiparnezole (ati) on the startle reflex and its prepulse inhibition in rats in the prescence of phencyclidine (PCP); (veh=vehicle). Asterisks as in FIG. 1, compared to the vehicle+PCP -group.
Prepulse-inhibition (PPI) of a startle response refers to the reduction in the startle response caused by a low intensity non-startling stimulus (the prepulse) which is presented shortly before the startle stimulus. PPI can be used as an operational measure of sensorimotor gating and appears to be present in all mammals, including rats and humans (Swerdlow, N. R. et al., The archives of general psychiatry 51 (1994) 139-154). Normally finctioning PPI can be disrupted by psychostimulants, such as d-amphetamine or phencyclidine (PCP), and reversed by clinically effective antipsychotics.
This hypothesis was tested with compounds K and L alone and against PCP disruption of the PPI. […]

[9] = calculated Ki from radioligand binding assays, read-out: Binding affinity (Ki) alpha2C

SMILES	Ki (alpha2C-adrenoceptor [1]; [9]) [nM]	Ki (alpha2B-adrenoceptor [2]) [nM]	Ki (alpha2A-adrenoceptor [6]) [nM]	other results
CC[C@]1(CO)CCCN2CCc3c([nH]c4ccccc34)[C@@H]21 (relative stereo) [Compound L]	18	20	85	Antagonism of dexmedetomidine-induced sedation (locomotor inhibition) (mice): did not have clear effects; Kb (alpha2A-adrenoceptor [3]): 320 nM; Kb (alpha2B-adrenoceptor [4]): 75 nM; Kb (alpha2C-adrenoceptor [5]): 4.2 nM; Activity in the forced swimming test (rats [7]; 3 micromol/kg): increased activity
CC(C)C1(O)CCCN2CCc3c([nH]c4ccccc34)C21 (stereo not drawn) [Compound A, 1α-Isopropyl-1,2,3,4,6,7,12,12bβ-octahydroindolo[2,3-a]quinolizin-1-ol]	61	330	480	–
C[C@@]1(O)CCCN2CCc3c([nH]c4ccccc34)[C@H]21 (relative stereo) [Compound H, 1α-Methyl-1,2,3,4,6,7,12,12bβ-octahydroindolo[2,3-a]quinolizin-1-ol]	23	45	280	–
CC(C)(C)[C@@H]1CCN2CCc3c([nH]c4ccccc34)[C@@H]2C1 (relative stereo) [Compound Q, 2β-tert-butyl-1,2,3,4,6,7,12,12bα-octahydro-indolo[2,3-a]quinolizine]	6.4	40	27	–
CC(O)C1CCCN2CCc3c([nH]c4ccccc34)C12 (stereo not drawn) [Compound P, 1-(1α2,3,4,6,7,12 12bβ-Octahydroindolo[2,3-a]quinolizin-1-yl)-ethanol]	90	410	290	–
CCC1=C(C)CC2c3[nH]c4ccccc4c3CCN2C1 (stereo not drawn) [Compound N, 3-Ethyl-2-methyl-1,4,6,7,12,12b-hexahydro-indolo[2,3-a]quinolizine]	46	1110	130	–
CCC1(O)C(C)CCN2CCc3c([nH]c4ccccc34)C21 (stereo not drawn) [Compound B, 1α-Ethyl-2α-methyl-1,2,3,4,6,7,12,12bβ-octahydro-indolo[2,3-a]quinoulzin-1-ol]	25	160	130	–
C1=CCN2CCc3c([nH]c4ccccc34)C2C1 (stereo not drawn) [Compound I, 1,4,6,7,12,12b-Hexahdroindolo[2,3-a]quinolizine]	–	460	150	Ki (alpha2C-adrenoceptor [1]): 85 nM
c1ccc2c3c([nH]c2c1)C1CCCCCN1CC3 (stereo not drawn) [Compound E, 2,3,4,5,7,8,13,13b-Octahydro-1H-azepino[1′,2′1,2]pyrido[3,4-b]indole]	26	110	30	–
CNCCC(Oc1ccc(C(F)(F)F)cc1)c1ccccc1 (stereo not drawn) [fluoxetine]	–	–	–	Activity in the forced swimming test (rats [7]; 10 micromol/kg): increased activity
CCC(C)C1(O)CCCN2CCc3c([nH]c4ccccc34)C21 (stereo not drawn) [Compound C, 1-s-Butyl-1,2,3,4,6,7,12,12bβ-octahydro-indolo[2,3-a]quinolizin-1-ol]	87	580	710	–
CC[C@@H]1CCCN2CCc3c([nH]c4ccccc34)[C@@H]12 (relative stereo) [Compound J, 1β-ethyl-1,2,3,4,6,7,12,12bβ-octabydroindolo[2,3-a]quinolizine]	75	520	210	–
CNCCCN1c2ccccc2CCc2ccccc21 [desipramine]	–	–	–	Activity in the forced swimming test (rats [7]; 10 micromol/kg): increased activity
CCC1(c2cnc[nH]2)Cc2ccccc2C1 [atipamezole]	–	–	–	Effect on prepulse inhibition (PPI) disrupted by PCP (rats [8]; antagonist 20 min, PCP 10 min before measurement): did not enhance PPI; Effect on startle reflex per se (startle without prepulses) (rats [8]; in the presence of PCP): increased the startle reflex per se; Antagonism of dexmedetomidine-induced sedation (locomotor inhibition) (mice): effectively antagonised the effect of dexmedetomidine; Activity in the forced swimming test (rats [7]; 10 micromol/kg): did not possess antidepressant-like effect
COC1CCN2CCc3c([nH]c4ccccc34)C2C1 (stereo not drawn) [Compound D, 2α-Methoxy-1,2,3,4,6,7,12,12bα-octahydro-indolo[2,3-a]quinolizine]	17	81	29	–
OC[C@H]1CCCN2CCc3c([nH]c4ccccc34)[C@H]12 (relative stereo) [Compound O, (1β,2,3,4,6,7,12,12bα-Octahydroindolo’[2,3-a]quinolizin-1-yl)-methanol]	110	270	380	–
CC[C@]1(CO)CCCN2CCc3c([nH]c4ccccc34)[C@H]21 (relative stereo) [Compound M, (1β-Ethyl-1,2,3,4,6,7,12,12bβ-octahydroindolo[2,3-a]quinolizin-1-yl)-methanol]	110	470	440	–
OC12CCCCC1CCN1CCc3c([nH]c4ccccc34)C12 (stereo not drawn) [Compound F, 2,3,4,4aβ,5,6,7,8,13,13bβ-Decahydro-1H-6a,13-diaza-indeno[1,2-c]phenanthren-13cβ-ol]	70	–	514	–
C[C@@H]1CCCN2CCc3c(oc4ccccc34)[C@@H]12 (relative stereo) [Compound G, 1-Methyl-1α,3,4,6,11bβ-hexahydro-2H-11-oxa4a-aza-benzo[a]fluorene]	22	–	96	–
